The source of these data is paper PMC11125181, “New Inhibitors of Bcr-Abl Based on 2,6,9-Trisubstituted Purine Scaffold Elicit Cytotoxicity in Chronic Myeloid Leukemia-Derived Cell Lines Sensitive and Resistant to TKIs” (Pharmaceutics, 2024).

The subject of one experiment is KBM5. Briefly: Cytotoxicity assay (resazurin) on KBM5. To be noted: Homo sapiens, KBM5; 72 h, resazurin assay; read-out: GI50 KBM5. In kind it is cell-based. In general terms: The colour change of resazurin is a common sign of viable cells or microbes.
For experiment [1], the system named is STAT5 phosphorylation, PARP cleavage in KCL22 B10. Briefly: Immunoblotting of Bcr-Abl pathway proteins, KCL22 B10. As to conditions: immunoblot, 24 h treatment. The format is cell-based, human. On the procedure:
(§1) Cell lysates were separated on SDS–polyacrylamide gels and electroblotted onto nitrocellulose membranes. After blocking, overnight incubation with specific primary antibodies was performed, followed by wash and incubation with peroxidase-conjugated secondary antibodies (Cell Signalling). Peroxidase activity was detected with SuperSignal West Pico reagents (Thermo Scientific, Waltham, MA, USA) using a CCD camera LAS-4000 (Fujifilm, Tokyo, Japan). The following specific primary antibodies were used: Cell Signalling: anti-STAT5 (#94205), anti-p-STAT5 Y694 (#9351), anti-Crkl (#3182), anti-p-Crkl Y207 (#3181), anti-cyclin A (#4656), anti-p-Bcr Y177 (#3901), and anti-PARP (#9532); Santa Cruz Biotechnology: anti-β-actin (#sc-47778).
(In general: In western blotting, separated proteins are transferred to a membrane and probed.)

The test system of the next experiment is BV173. The experiment can be described thus: Cytotoxicity assay (resazurin) on BV173. The format is cell-based. As to conditions: Homo sapiens, BV-173, 72 h. On the procedure: (§2) Human cell lines KCL22 and BV173 were obtained from the German Collection of Microorganisms and Cell Cultures, K562 and HEK-293T from the European Collection of Authenticated Cell Cultures. KBM5 cell line was kindly gifted by Vladimír Divoký. Development of KCL22 subclones B8 (T315I, 100%), F4 (E255K, 100%), and B10 (Y253H, 50%) was reported previously. All cell lines were cultivated in humidified incubator at 37 °C and in 5% CO2 according to the provider’s instructions in appropriate media supplemented with 10% fetal bovine serum, penicillin (100 IU/mL), streptomycin (100 µg/mL), and glutamine (4 mM).
(§3) Cytotoxicity was determined using resazurin, an indicator dye to measure oxidation-reduction reactions occurring in the mitochondria of live cells. The cells were seeded into 96-well plates and treated with compounds for 72 h (six different doses of each, in triplicate). After treatment, resazurin (Merck, Darmstadt, Germany) solution was added for 4 h, and the fluorescence of formed resorufin corresponding to live cell quantity was measured at 544 nm/590 nm (excitation/emission) using a Fluoroskan Ascent microplate reader (Labsystems, Vantaa, Finland).

Experiment [2] has as its system STAT5 phosphorylation, PARP cleavage in KCL22 F4. The experiment can be described thus: Immunoblotting of Bcr-Abl pathway proteins, KCL22 F4. In kind it is cell-based, human. To be noted: immunoblot, 24 h treatment. The method, then:
as §1

A further experiment has as its system KCL22 B10 (Y253H, 50%). The experiment can be described thus: Cytotoxicity assay (resazurin) on KCL22 subclone B10. To be noted: Homo sapiens, KCL-22, read-out: GI50 KCL22 B10 Y253H (50%), 72 h. The format is cell-based. The method, then: as §2, §3
For experiment [3], the system named is p-Crkl, p-STAT5, PARP, cyclin A in WT KCL22 cell line. The experiment can be described thus: Immunoblotting of Bcr-Abl pathway proteins, WT KCL22. In kind it is cell-based, human. To be noted: immunoblot, 24 h treatment. On the procedure:
as §1

In the next experiment the test system is KCL22 F4 (E255K). Briefly: Cell cycle flow cytometry, KCL22 F4. The format is cell-based, human. As to conditions: 24 h treatment. On the procedure: (§4) The cell lines were seeded into 96-well plates and then treated with compounds for 24 h. After treatment, the cells were directly stained by adding 5 × staining solution (17 mM trisodium citrate dihydrate, 0.5% IGEPAL® CA-630, 7.5 mM spermine tetrahydrochloride, 2.5 mM Tris; pH 7.6 containing 50 μg/mL propidium iodide). DNA content was measured by flow cytometry using a 488 nm laser (BD FACS Verse with software BD FACSuite™, version 1.0.6.). Cell cycle distribution was analyzed using ModFit LT 5.0.9 (Verity Software House, Augusta, ME, USA).
In general terms: Flow cytometry measures light scatter and fluorescence of single cells or particles in a stream.

The next experiment has as its system K562. Briefly: Cytotoxicity assay (resazurin) on K562. The format is cell-based. As to conditions: Homo sapiens, 72 h. On the procedure:
as §2, §3

A further experiment concerns HEK-293T. Briefly: Cytotoxicity assay (resazurin) on non-neoplastic HEK-293T. The format is cell-based. To be noted: Homo sapiens, 72 h, non-neoplastic cells. On the procedure: as §2, §3
The subject of experiment [4] is KCL22 cells containing Bcr-Abl^WT. Briefly: Cytotoxicity assay (resazurin) on KCL22 WT. As to conditions: Homo sapiens, KCL-22, 72 h, read-out: GI50 KCL22 WT. In kind it is cell-based, human.
For the next experiment, the system named is KCL22 B10 (Y253H). Briefly: Cell cycle flow cytometry, KCL22 B10. The format is cell-based, human. As to conditions: 24 h treatment. On the procedure: as §4
Experiment [5] deals with KCL22 B8 cell line containing Bcr-Abl^T315I. The experiment can be described thus: Cell cycle flow cytometry, KCL22 B8. As to conditions: 24 h treatment. In kind it is cell-based, human.
Procedure: The cell lines were seeded into 96-well plates and then treated with compounds for 24 h. After treatment, the cells were directly stained by adding 5 × staining solution (17 mM trisodium citrate dihydrate, 0.5% IGEPAL® CA-630, 7.5 mM spermine tetrahydrochloride, 2.5 mM Tris; pH 7.6 containing 50 μg/mL propidium iodide). […] Cell cycle distribution was analyzed using ModFit LT 5.0.9 (Verity Software House, Augusta, ME, USA).
For experiment [6], the system named is KBM5, BV173, K562 (Bcr-Abl rearranged cell lines). Briefly: Cytotoxicity across cell lines with Bcr-Abl rearrangement. The format is cell-based. To be noted: Homo sapiens, read-out: GI50 in Bcr-Abl rearranged cell lines (span over cell lines). On the procedure: as §2, §3
For another experiment, the target named is T1, recombinant Abl1 kinase (Homo sapiens, UniProt P00519).
T1 construct: made in house
The experiment can be described thus: Recombinant Abl1 kinase inhibition assay ([γ-33P]ATP, peptide substrate). In kind it is biochemical. The method, then:
The reactions were stopped by adding 5 µL of 3% aq. H3PO4. […] H3PO4, and air-dried.

For the next experiment, the system named is KCL22 WT cells. Briefly: Cell cycle flow cytometry, KCL22 WT. In kind it is cell-based, human. As to conditions: 24 h treatment, increasing concentration up to 5 µM. On the procedure: as §4
Another experiment has as its system KCL22 B8 (T315I, 100%). The experiment can be described thus: Cytotoxicity assay (resazurin) on KCL22 subclone B8. The format is cell-based. As to conditions: Homo sapiens, KCL-22, read-out: GI50 KCL22 B8 T315I (100%), 72 h. On the procedure:
as §2, §3

The subject of a further experiment is KCL22 F4 (E255K, 100%). The experiment can be described thus: Cytotoxicity assay (resazurin) on KCL22 subclone F4. In kind it is cell-based. As to conditions: Homo sapiens, KCL-22, read-out: GI50 KCL22 F4 E255K (100%), 72 h. The method, then:
as §2, §3

Read-outs that look alike come from different tables or passages of the source.

T1 sequence (P00519 whole entry): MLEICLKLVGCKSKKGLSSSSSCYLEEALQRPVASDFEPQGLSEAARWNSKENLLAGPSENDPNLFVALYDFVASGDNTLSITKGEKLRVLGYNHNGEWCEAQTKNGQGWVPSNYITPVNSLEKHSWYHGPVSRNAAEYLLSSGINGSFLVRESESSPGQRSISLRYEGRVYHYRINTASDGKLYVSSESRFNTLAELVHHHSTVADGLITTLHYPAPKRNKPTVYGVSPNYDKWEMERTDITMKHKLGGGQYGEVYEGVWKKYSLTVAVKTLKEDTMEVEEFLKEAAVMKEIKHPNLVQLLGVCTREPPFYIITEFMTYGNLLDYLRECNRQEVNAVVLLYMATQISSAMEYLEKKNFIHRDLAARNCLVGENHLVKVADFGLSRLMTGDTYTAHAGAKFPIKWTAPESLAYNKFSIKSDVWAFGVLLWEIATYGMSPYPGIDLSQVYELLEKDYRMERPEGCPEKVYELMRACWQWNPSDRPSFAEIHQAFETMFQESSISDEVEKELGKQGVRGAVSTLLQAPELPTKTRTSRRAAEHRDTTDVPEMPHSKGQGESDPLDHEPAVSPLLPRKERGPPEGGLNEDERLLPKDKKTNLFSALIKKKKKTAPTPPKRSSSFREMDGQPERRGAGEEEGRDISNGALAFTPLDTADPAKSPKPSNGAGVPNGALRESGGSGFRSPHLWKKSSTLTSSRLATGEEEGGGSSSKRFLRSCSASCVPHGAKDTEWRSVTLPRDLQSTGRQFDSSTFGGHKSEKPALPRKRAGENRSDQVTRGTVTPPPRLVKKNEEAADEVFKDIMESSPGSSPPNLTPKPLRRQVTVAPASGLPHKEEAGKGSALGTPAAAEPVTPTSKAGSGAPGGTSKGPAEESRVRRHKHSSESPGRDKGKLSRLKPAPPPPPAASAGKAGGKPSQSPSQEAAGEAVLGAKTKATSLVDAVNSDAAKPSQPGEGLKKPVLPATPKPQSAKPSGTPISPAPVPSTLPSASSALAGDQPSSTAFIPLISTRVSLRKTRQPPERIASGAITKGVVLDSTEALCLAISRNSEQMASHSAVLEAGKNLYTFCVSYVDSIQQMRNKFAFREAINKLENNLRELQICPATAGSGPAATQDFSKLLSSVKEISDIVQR

`OCCN1CCN(c2ccc(Nc3nc(Nc4cccc(F)c4)c4ncn(CC5CC5)c4n3)cc2)CC1` [Compound 11b, 2-(4-(4-((9-(Cyclopropylmethyl)-6-((3-fluorophenyl)amino)-9H-purin-2-yl)amino)phenyl)piperazin-1-yl)ethan-1-ol]: the GI50 (in general, the concentration at which growth is held to half of that of the control) stood at 1300 ± 100 nM in the experiment with KBM5; 1500 ± 200 nM with BV173; 2600 ± 200 nM in the experiment on KCL22 B10 (Y253H, 50%); 700 ± 200 nM in the experiment with K562; 5500 ± 600 nM in the experiment with HEK-293T; 2000 ± 400 nM in [4]. Besides, the GI50 in experiment [6] was 700 to 1300 nM; in the experiment with KCL22 B8 (T315I, 100%), 11500 ± 1100 nM; with KCL22 F4 (E255K, 100%) it was 4100 ± 100 nM. For the same compound, in experiment [1], the “Effect on Bcr-Abl downstream proteins, KCL22 B10” value is “significantly pronounced in both mutant cell lines”. In addition, the “Effect on Bcr-Abl downstream proteins, KCL22 F4” value in [2] is listed as “significantly pronounced in both mutant cell lines”. In addition, the “Effect on Bcr-Abl downstream proteins, WT KCL22” value in [3] was “downregulated the levels of p-Crkl and p-STAT5”. Besides, in the experiment on KCL22 F4 (E255K), the “Effect on cell cycle distribution, KCL22 F4” value is “arrested F4 and B10 mutant models in G1 phase”. Moreover, the “Effect on cell cycle distribution, KCL22 B10” value in the experiment on KCL22 B10 (Y253H) is “arrested F4 and B10 mutant models in G1 phase”. For the same compound, in experiment [5], the “Effect on cell cycle distribution, KCL22 B8 (T315I)” value is listed as “resistant”. The IC50 was 14 nM on recombinant Abl1 kinase (from the IC50 of Table S1, read-out: pIC50 (Table S1) (converted)) and 15 ± 10 nM on recombinant Abl1 kinase (recombinant Abl1, 1 µM ATP, at least three independent experiments, read-out: IC50 Abl). Further, the “Effect on cell cycle distribution, KCL22 WT” value with KCL22 WT cells is “significant block of WT cells in G1 phase”.
